What follows are molecules tested against T1, hT1R1/hT1R3 umami receptor (Homo sapiens, UniProt Q7RTX0+Q7RTX1) (assay: In vitro hT1R1/hT1R3 umami taste receptor activation assay (FLIPR, dose response)). Settings: read-out: EC50 for activation of a hT1R1/hT1R3 umami receptor expressed in an HEK293 cell line.
T1 construct: expressed in transfected cells; host or cells: HEK293 derivative stably expressing Gα15, clone I-17, expression induced with mifepristone
T1 sequence (Q7RTX1 21-841): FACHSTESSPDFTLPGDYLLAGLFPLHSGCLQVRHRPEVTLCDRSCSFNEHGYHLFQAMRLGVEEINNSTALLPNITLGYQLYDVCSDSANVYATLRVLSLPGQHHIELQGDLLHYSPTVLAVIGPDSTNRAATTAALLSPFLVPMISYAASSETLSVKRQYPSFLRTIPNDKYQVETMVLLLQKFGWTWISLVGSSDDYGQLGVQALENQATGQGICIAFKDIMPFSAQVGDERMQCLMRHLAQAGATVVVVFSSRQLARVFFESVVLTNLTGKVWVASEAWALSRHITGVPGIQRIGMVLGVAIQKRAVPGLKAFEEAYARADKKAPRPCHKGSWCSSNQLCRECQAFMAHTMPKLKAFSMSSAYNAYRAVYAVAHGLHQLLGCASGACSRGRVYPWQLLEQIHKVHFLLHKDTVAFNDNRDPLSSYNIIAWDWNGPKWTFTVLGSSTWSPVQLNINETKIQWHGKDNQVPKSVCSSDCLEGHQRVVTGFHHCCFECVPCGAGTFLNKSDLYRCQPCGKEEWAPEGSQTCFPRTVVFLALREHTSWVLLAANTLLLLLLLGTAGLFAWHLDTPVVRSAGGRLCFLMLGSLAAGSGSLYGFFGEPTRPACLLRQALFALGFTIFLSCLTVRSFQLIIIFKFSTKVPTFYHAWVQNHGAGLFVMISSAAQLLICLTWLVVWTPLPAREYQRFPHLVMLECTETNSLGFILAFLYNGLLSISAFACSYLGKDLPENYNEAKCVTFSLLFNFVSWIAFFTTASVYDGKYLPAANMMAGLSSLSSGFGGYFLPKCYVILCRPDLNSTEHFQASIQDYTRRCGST
T1 sequence (Q7RTX0 21-852): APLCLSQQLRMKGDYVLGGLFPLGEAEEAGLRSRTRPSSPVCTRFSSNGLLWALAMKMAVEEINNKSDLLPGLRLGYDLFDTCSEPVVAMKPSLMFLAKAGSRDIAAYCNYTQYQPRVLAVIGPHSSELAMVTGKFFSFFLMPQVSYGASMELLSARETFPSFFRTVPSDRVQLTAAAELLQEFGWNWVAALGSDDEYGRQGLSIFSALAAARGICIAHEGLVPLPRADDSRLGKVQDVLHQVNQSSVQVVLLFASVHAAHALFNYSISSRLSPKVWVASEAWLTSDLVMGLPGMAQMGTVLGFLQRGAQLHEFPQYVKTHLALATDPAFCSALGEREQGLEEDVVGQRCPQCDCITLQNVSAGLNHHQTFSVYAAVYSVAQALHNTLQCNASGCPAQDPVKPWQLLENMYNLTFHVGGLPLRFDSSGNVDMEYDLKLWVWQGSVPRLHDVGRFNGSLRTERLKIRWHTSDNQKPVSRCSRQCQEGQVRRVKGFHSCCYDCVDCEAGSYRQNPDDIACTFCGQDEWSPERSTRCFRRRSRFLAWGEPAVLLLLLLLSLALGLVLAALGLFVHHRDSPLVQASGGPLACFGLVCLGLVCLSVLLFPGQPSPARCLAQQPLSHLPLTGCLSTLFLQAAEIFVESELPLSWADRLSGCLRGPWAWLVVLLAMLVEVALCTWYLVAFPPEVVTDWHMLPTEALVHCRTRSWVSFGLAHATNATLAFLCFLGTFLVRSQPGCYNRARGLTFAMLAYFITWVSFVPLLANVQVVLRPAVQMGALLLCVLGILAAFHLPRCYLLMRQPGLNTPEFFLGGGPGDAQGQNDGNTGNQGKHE
Format: cell-based
Text: In order to identify new savory flavoring agents and enhancers, including compounds with savory agonist and enhancer activities (dual activity), the compounds of Formula (I) were screened in primary assays and secondary assays including compound dose response and enhancement assay. In a primary assay for potential ability to modulate umami taste, amide compounds of Formula (I) that can be either savory flavoring agents in their own right or flavor enhancers of MSG are identified and scores of their activities are given as percentage of the maximum MSG intensity (%). In compound dose response, an EC50 is calculated to reflect the potency of the compound as a savory agonist or enhancer.
An HEK293 cell line derivative (See e.g., Chandrashekar, et al., Cell (2000) 100: 703-711) which stably expresses Gα15 and hT1R1/hT1R3 under an inducible promoter (see WO 03/001876 A2) was used to identify compounds with savory tasting properties.
For dose-responses analysis, stimuli were presented in duplicates at 10 different concentrations ranging from 1.5 nM to 30 μM. Activities were normalized to the response obtained with 60 mM monosodium glutamate, a concentration that elicits maximum receptor response. […] Identical results were obtained when analyzing the dose-response data using commercially available software for non-linear regression analysis such as GraphPad PRISM (San Diego, Calif.).

SMILES	EC50
COC(=O)[C@@H](CC1CCCCC1)NC(=O)c1cc2cc(OC)ccc2o1 [Example 30, (R)-methyl 3-cyclohexyl-2-(5-methoxybenzofuran-2-carboxamido)propanoate]	1140 nM
CCC(CC(C)C)NC(=O)c1cc2cc(OC)ccc2o1 (centres unmarked) [Example 31, 5-methoxy-N-(5-methylhexan-3-yl)benzofuran-2-carboxamide]	1040 nM
COC(=O)[C@@H](CC(C)C)NC(=O)c1cc2cc(Cl)ccc2o1 [Example 32]	820 nM
COC(=O)[C@@H](CC(C)C)NC(=O)c1oc2ccccc2c1C [Example 33, (R)-methyl 4-methyl-2-(3-methylbenzofuran-2-carboxamido)pentanoate]	1180 nM
CCCC(CCC)NC(=O)c1cc2ccccc2s1 [Example 34, N-(heptan-4-yl)benzo[b]thiophene-2-carboxamide]	210 nM
CCCC(CCC)NC(=O)c1cc2ccccc2[nH]1 [Example 35, N-(heptan-4-yl)-1H-indole-2-carboxamide]	6800 nM
COC(=O)[C@@H](CC(C)C)NC(=O)c1cc2cc(C)ccc2[nH]1 [Example 36, (R)-methyl 4-methyl-2-(5-methyl-1H-indole-2-carboxamido)pentanoate]	6600 nM
CCCC(CCC)NC(=O)c1cc2ccccc2n1C [Example 37, N-(heptan-4-yl)-1-methyl-1H-indole-2-carboxamide]	1790 nM
CCCC(CCC)NC(=O)c1ccc2[nH]cnc2c1 [Example 38, N-(heptan-4-yl)-1H-benzo[d]imidazole-5-carboxamide]	18600 nM
CCCC(CCC)NC(=O)c1ccc2ocnc2c1 [Example 39, benzooxazole-5-carboxylic acid (1-propylbutyl)amide]	1910 nM
CCCC(CCC)NC(=O)c1ccc2oc(C)nc2c1 [Example 40, 2-Methyl-benzooxazole-5-carboxylic acid (1-propyl-butyl)-amide]	330 nM
CCCC(CCC)NC(=O)c1ccc2nc(C)oc2c1 [Example 46, 2-Methyl-benzooxazole-6-carboxylic acid (1-propyl-butyl)-amide]	2100 nM
CCCC(CCC)NC(=O)c1ccc(C)c(SC)c1 [Example 48, 4-methyl-3-methylsulfanyl-N-(1-propylbutyl)benzamide]	210 nM
COC(=O)[C@@H](CC(C)C)NC(=O)c1ccc(C)c(SC)c1 [Example 49, (R)-methyl 4-methyl-2-(4-methyl-3-(methylthio)benzamido)pentanoate]	100 nM
COC(=O)[C@@H](CC(C)C)NC(=O)c1ccc(SC)cc1 [Example 50, (R)-methyl 4-methyl-2-(4-(methylthio)benzamido)pentanoate]	160 nM
CCCC(CC(C)C)NC(=O)c1ccc(OC)c(C)c1 (centres unmarked) [Example 52, 4-methoxy-3-methyl-N-(2-methylheptan-4-yl)benzamide]	100 nM
CCC(CC(C)C)NC(=O)c1ccc(OC)c(C)c1 (centres unmarked) [Example 53, 4-methoxy-3-methyl-N-(5-methylhexan-3-yl)benzamide]	90 nM
CCCC(NC(=O)c1ccc(OC)c(C)c1)c1ccc(OC)cc1 (centres unmarked) [Example 54, 4-methoxy-N-(1-(4-methoxyphenyl)butyl)-3-methylbenzamide]	3140 nM
COc1ccc(C(=O)N[C@H](CC(C)C)c2nc(C)no2)cc1C [Example 55, (R)-4-methoxy-3-methyl-N-(3-methyl-1-(3-methyl-1,2,4-oxadiazol-5-yl)butyl)benzamide]	5400 nM
CCCC(CCC)NC(=O)c1ccc(OCC)c(C)c1 [Example 56, 4-ethoxy-N-(heptan-4-yl)-3-methylbenzamide]	170 nM
CCCC(COC)NC(=O)c1ccc(OCC)c(C)c1 (centres unmarked) [Example 57, 4-ethoxy-N-(1-methoxypentan-2-yl)-3-methylbenzamide]	690 nM
CCCC(CCC)NC(=O)c1ccc(O)c(C)c1 [Example 58, 4-hydroxy-3-methyl-N-(1-propyl-butyl)-benzamide]	920 nM
CCCC(CCC)NC(=O)c1ccc(OCCOC)c(C)c1 [Example 59, N-(heptan-4-yl)-4-(2-methoxyethoxy)-3-methylbenzamide]	210 nM
COC(=O)[C@@H](CC(C)C)NC(=O)c1ccc(OC)c(F)c1 [Example 60, (R)-methyl 2-(3-fluoro-4-methoxybenzamido)-4-methylpentanoate]	300 nM
CCC(CC)NC(=O)c1ccc(OC)c(Cl)c1 [Example 61, 3-chloro-4-methoxy-N-(pentan-3-yl)benzamide]	560 nM

Further lines, results first:

EC50	SMILES
80 nM	COC(=O)[C@@H](CC(C)C)NC(=O)c1ccc(OC)c(Cl)c1 [Example 62, (R)-methyl 2-(3-chloro-4-methoxybenzamido)-4-methylpentanoate]
2500 nM	COc1ccc(C(=O)N[C@H](C)c2ccccc2)cc1Cl [Example 63, (R)-3-chloro-4-methoxy-N-(1-phenylethyl)benzamide]
800 nM	CCCC(CCC)NC(=O)c1ccc(Cl)c(C)c1 [Example 64, 4-Chloro-3-methyl-N-(1-propyl-butyl)-benzamide]
360 nM	CCCC(CCC)NC(=O)c1ccc(OC)c(OC)c1 [Example 65, 3,4-Dimethoxy-N-(1-propyl-butyl)-benzamide]
320 nM	COC(=O)[C@@H](CC(C)C)NC(=O)c1ccc(F)c(C)c1 [Example 66, (R)-methyl 2-(4-fluoro-3-methylbenzamido)-4-methylpentanoate]
110 nM	CCCC(NC(=O)c1ccc(C)c(C)c1)C(C)C (centres unmarked) [Example 68, 3,4-dimethyl-N-(2-methylhexan-3-yl)benzamide]
130 nM	CCCC(CC(C)C)NC(=O)c1ccc(C)c(C)c1 (centres unmarked) [Example 69, 3,4-dimethyl-N-(2-methylheptan-4-yl)benzamide]
170 nM	CCC(CC(C)C)NC(=O)c1ccc(C)c(C)c1 (centres unmarked) [Example 70, 3,4-dimethyl-N-(5-methylhexan-3-yl)benzamide]
1060 nM	COCOC[C@@H](CC(C)C)NC(=O)c1ccc(C)c(C)c1 [Example 72, (R)-N-(1-(methoxymethoxy)-4-methylpentan-2-yl)-3,4-dimethylbenzamide]
870 nM	COCC(NC(=O)c1ccc(C)c(C)c1)C(C)C (centres unmarked) [Example 73, N-(1-Methoxymethyl-2-methyl-propyl)-3,4-dimethyl-benzamide]
15800 nM	COC(=O)[C@@H](CC(C)C)NC(=O)c1ccc(SC)cc1OC [Example 74, (R)-methyl 2-(2-methoxy-4-(methylthio)benzamido)-4-methylpentanoate]
240 nM	CCC(CC(C)C)NC(=O)/C=C/c1ccc(OC)cc1 (centres unmarked) [Example 75]
5800 nM	CCC(CC)NC(=O)/C=C/c1ccc(OCCO)cc1 [Example 76, N-(1-Ethyl-propyl)-3-[4-(2-hydroxy-ethoxy)-phenyl]-acrylamide]

— patent US20060045953A1 (priority 2004, published 2006)
